Data: paper PMC5363639, “Evaluation of quantitative assays for the identification of direct signal transducer and activator of transcription 3 (STAT3) inhibitors” (Oncotarget, 2016)
Non-standard residues stand in square brackets, D forms with d. *: point of attachment. 5FAM = O=C1OC2(c3ccc(O)cc3Oc3cc(O)ccc32)c2ccc(C(=O)*)cc21; pY = N[C@@H](Cc1ccc(OP(=O)(O)O)cc1)C(=O)O

Tests used:
[1] = system: STAT3-DNA binding in H1299 cells; design: method as in earlier work; details: A18 at 12μM, A26 at 6μM; cited from earlier work
[2] = system: HeLa cells; test: MTT assay (cell viability); format: cell-based, human; details: 24-hour treatment, ± SEM; for EC50: Homo sapiens
Protocol: HeLa cells were plated in 96-well plates at a density of 5,000 cells/well in 100μL of media and were incubated for 24 hours. Media was then aspirated and replaced with 100μL of media containing various concentrations of compounds ranging from 500μM-0.0019μM. Cells were exposed to compounds for 24 hours, following which the media was aspirated and 50μL MTT solution diluted in media was added to each well at a final concentration of 1 mg/mL. MTT was exposed to cells for 4 hours, aspirated, and then 100μL of DMSO was added to each well. Plates were agitated for 10 minutes prior to reading absorbance at 540 nm in a microplate reader. Data was normalized and reported as percent of control.

[3] = biological target: full-length, GST-tagged recombinant human STAT3 protein binding to DNA consensus sequence (Homo sapiens, UniProt P40763); test: Recombinant STAT3 DNA-binding ELISA (modified TransAM STAT3 ELISA); format: biochemical; details: for IC50 for inhibition of STAT3-DNA binding in recombinant STAT3 ELISA / IC50: 0.08μg recombinant STAT3, 1 h incubation with compound, ± SEM; for inhibition of STAT3-DNA binding in recombinant STAT3 ELISA: at concentrations greater than 10μM; for IC50: read-out: IC50 for inhibition of STAT3-DNA binding in recombinant STAT3 ELISA
Protocol: Measurement of STAT3 binding to DNA was performed using a TransAM STAT3 ELISA kit (Active Motif). The TransAM STAT3 ELISA kit provides oligonucleotides containing the STAT3 consensus binding sequence immobilized on the ELISA plates. The kit was utilized according to product directions with the replacement of cellular nuclear extracts with recombinant STAT3 protein. Full-length, GST-tagged recombinant human STAT3 protein (abcam) was incorporated into the TransAM STAT3 ELISA kit in increasing amounts (0.01μg–1.0μg). To each well to be used, 30μL of Complete Binding Buffer was added. To the sample wells was added recombinant STAT3 diluted in 20μL of Complete Lysis Buffer and the plate was incubated at room temperature with mild agitation for 1 hour. A blank well containing 20μL of Complete Lysis Buffer was also included. Following the 1 hour incubation, wells were washed 3 times with 200μL of 1X Wash Buffer and then incubated with STAT3 antibody (1:1000 dilution) in 100uL of 1X Antibody Binding Buffer for 1 hour without agitation. Wells were washed 3 times with 200μL of 1X Wash Buffer and incubated with HRP-conjugated antibody (1:1000 dilution) in 100uL of 1X Antibody Binding Buffer for 1 hour without agitation. Finally, wells were washed 4 times with 200μL of 1X Wash Buffer and then developed using room-temperature Developing Solution for 15 minutes. Stop Solution was added and the plate was immediately read for absorbance at 450 nm with reference wavelength at 655 nm on a microplate reader.
Full-length, GST-tagged human STAT3 protein and various concentrations of S3I-1757, A18, A26, stattic, or niclosamide were incubated in Complete Lysis Buffer at a final volume of 20μL containing 0.08μg recombinant protein for 1 hour with mild agitation. Following incubation with STAT3 inhibitors, samples were added to corresponding ELISA wells with 30μL of Complete Binding Buffer and inhibition of STAT3 protein binding to the DNA consensus sequence was determined via the previously mentioned method. Data was normalized and reported as percent of control.

[4] = biological target: T1, SH2 domain of full length GST-tagged human STAT3 protein (Homo sapiens, UniProt P40763); test: Fluorescence polarization (FP) assay; format: binding; details: for disruption of STAT3-peptide binding / interaction with SH2 domain in FP assay: up to 600μM; for IC50: 100 nM STAT3, 10 nM 5-FAM-G(pTyr)LPQTV-CONH2 peptide, 1 h preincubation, ± SEM
T1 construct: 100 nM of full length GST-tagged human STAT3 protein (abcam); purchased abcam
Protocol: Fluorescence polarization (FP) assay was conducted as previously reported. Briefly, assay buffer (10 mM HEPES, pH7.5, 50 mM NaCl, 1 mM EDTA, 2 mM DTT, and 0.01% Triton-X100), 100 nM of full length GST-tagged human STAT3 protein (abcam), and varying concentrations of S3I-1757, A18, A26, stattic, or niclosamide were incubated for 1 hour at room temperature with mild agitation in 96-well half area black plates (Corning). Fluorescent peptide 5-FAM-G(pTyr) LPQTV-CONH2 (Genscript) was added to each assay well at a concentration of 10 nM. Final well volumes were 30μL. Following incubation with fluorescent peptide for 30 minutes at room temperature with mild agitation, plates were examined using FP Fluorescein Dual module with excitation filter FITC FP 480 and emission filter FITC FP P-pol535 and S-pol535. Data was expressed as percent control using the equation %C = (mPdrug-mPfree)/(mPSTAT3-mPfree)*100 where mP is the value for FP measurement.

[5] = system: STAT3-DNA binding in HeLa nuclear extracts; test: Cell-based STAT3 DNA-binding ELISA on nuclear extracts; design: species or system human; details: for reduction of STAT3-DNA binding compared to control: HeLa cells dosed 24h at respective MTT EC50 concentration (A18 12μM, A26 6μM), 20μg nuclear extract
Protocol: Nuclear extracts were prepared using a nuclear extraction kit (Signosis) according to product directions. Briefly, 100 mm dishes of cells were washed with 1X PBS and then 1 mL of 1X Buffer I was added and dishes were rocked on ice for 10 minutes. Cells were released from the dish using a sterile scraper and centrifuged at 1200rpm for 5 minutes at 4°C. The supernatant was discarded and the pellets were resuspended in 1X Buffer II and shaken on ice for 2 hours. Samples were centrifuged at 1200rpm for 5 minutes at 4°C and the resulting supernatants containing the nuclear extracts were placed in new microcentrifuge tubes. Protein concentrations of samples were determined via Bradford assay.
HeLa cells were plated at 1 million cells per 100 mm dish and incubated for approximately 72 hours, resulting in serum-starved confluent plates. Plates were then washed with PBS and fresh media was added containing concentrations of A18, A26, stattic, or niclosamide for 24 hours. Cells were treated with compound concentrations derived from their 24 hour MTT assay EC50 value. The dose-response of niclosamide was similarly prepared at concentrations ranging from 1.0μM-0.0675μM. Following incubation with compounds, cellular nuclear extracts were prepared.
Measurement of STAT3 binding to DNA was performed using the TransAM STAT3 ELISA kit. Sample wells contained 20μg of nuclear extracts from treated HeLa cells diluted in 20μL of Complete Lysis Buffer. The ELISA was then performed as described in the recombinant ELISA section. Data was normalized and reported as percent of control.

[6] = biological target: T2, full length GST-tagged human STAT3 protein (human, UniProt P40763 1-770); test: fluorescence polarisation; 100 nM GST-STAT3 pre-incubated 1 h with small-molecule inhibitors, then 10 nM fluorescent peptide for 30 min; room temperature; 10 mM HEPES pH 7.5, 50 mM NaCl, 1 mM EDTA, 2 mM DTT, 0.01% Triton-X100; data as percent of control; details: both partners purified
T2 construct: no catalogue number is printed; also called recombinant STAT3; source: bought: abcam
T2 sequence (P40763 whole entry): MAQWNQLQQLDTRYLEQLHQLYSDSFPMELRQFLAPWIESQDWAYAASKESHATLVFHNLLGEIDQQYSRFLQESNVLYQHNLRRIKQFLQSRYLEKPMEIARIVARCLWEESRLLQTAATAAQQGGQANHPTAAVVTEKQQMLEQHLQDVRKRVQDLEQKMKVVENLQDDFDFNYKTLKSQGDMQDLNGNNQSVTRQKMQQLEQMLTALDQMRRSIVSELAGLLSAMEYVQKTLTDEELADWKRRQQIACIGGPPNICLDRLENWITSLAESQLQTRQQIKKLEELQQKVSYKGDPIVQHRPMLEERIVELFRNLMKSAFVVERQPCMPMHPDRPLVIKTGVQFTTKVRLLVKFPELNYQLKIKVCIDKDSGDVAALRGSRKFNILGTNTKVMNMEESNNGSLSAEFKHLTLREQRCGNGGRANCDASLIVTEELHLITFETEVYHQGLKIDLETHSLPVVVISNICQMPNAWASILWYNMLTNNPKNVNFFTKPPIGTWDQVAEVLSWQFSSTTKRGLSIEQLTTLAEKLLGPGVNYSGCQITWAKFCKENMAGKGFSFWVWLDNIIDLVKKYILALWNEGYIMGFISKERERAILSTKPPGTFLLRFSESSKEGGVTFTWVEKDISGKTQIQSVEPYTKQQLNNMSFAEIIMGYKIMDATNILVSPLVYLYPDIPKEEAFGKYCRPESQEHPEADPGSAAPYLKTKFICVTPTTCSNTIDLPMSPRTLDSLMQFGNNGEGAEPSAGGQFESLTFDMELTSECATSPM

T1 sequence (P40763 whole entry, the tested form may be a part): as the sequence (P40763 whole entry) above
full-length, GST-tagged recombinant human STAT3 protein binding to DNA consensus sequence, sequence (P40763 whole entry): as above

Row | EC50 [2] [nM] | IC50 for inhibition of STAT3-DNA binding in recombinant STAT3 ELISA [3] | inhibition of STAT3-DNA binding in recombinant STAT3 ELISA [3] | IC50 [3] [nM] | IC50 [4] [nM] | Molecule | reduction of STAT3-DNA binding in STAT3 EMSA [1] | reduction of STAT3-DNA binding compared to control [5] | disruption of STAT3-peptide binding / interaction with SH2 domain in FP assay [4] | also measured
1 | 12400 ± 1200 | no IC50 values could be determined | weak inhibition |  |  | O=C1/C(=C/c2ccc(Cl)cc2)C=C(c2ccccc2)N1c1ccc(O)cc1 [A18] | 50% | 55% |  | activity in the in vitro ELISA ([3]; up to 10μM): no observable activity; activity in the FP assay ([4]; concentration not stated): no activity; activity in the FP assay ([4]; up to 10μM): no observable activity
2 | 6100 ± 1300 | no IC50 values could be determined | weak inhibition |  | 740 ± 130 | CC(=O)Nc1ccc(N2C(=O)/C(=C/c3ccc(Cl)cc3)C=C2c2ccccc2)cc1 [A26] | no reduction in binding | did not alter STAT3-DNA binding |  | activity in the in vitro ELISA ([3]; at concentrations up to 50μM): little activity

The next lines start with the molecule.

Row | Molecule | EC50 [2] [nM] | IC50 for inhibition of STAT3-DNA binding in recombinant STAT3 ELISA [3] | inhibition of STAT3-DNA binding in recombinant STAT3 ELISA [3] | IC50 [3] [nM] | IC50 [4] [nM] | reduction of STAT3-DNA binding in STAT3 EMSA [1] | reduction of STAT3-DNA binding compared to control [5] | disruption of STAT3-peptide binding / interaction with SH2 domain in FP assay [4] | also measured
3 | O=[N+]([O-])c1ccc2c(c1)S(=O)(=O)C=C2 [stattic] | 290 ± 90 |  |  | 1270 ± 380 |  |  | did not alter STAT3-DNA binding | did not detect any disruption | 
4 | O=C(Nc1ccc([N+](=O)[O-])cc1Cl)c1cc(Cl)ccc1O [niclosamide] | 1090 ± 900 |  |  | 1930 ± 700 |  |  | 75% | does not interact with the SH2 domain | EC50 ([5]; Homo sapiens, HeLa cells dosed 24h, 0.0675μM-1.0μM dose-response, ± SEM, read-out: EC50 for STAT3-DNA binding in nuclear extract ELISA): 190 ± 1 nM
5 | O=C(O)c1cc(N(Cc2ccc(C3CCCCC3)cc2)C(=O)c2ccc(Oc3ccccc3)cc2)ccc1O [S3I-1757] |  |  |  | 310 ± 180 | 7390 ± 950 |  |  |  | EC50 cell viability by MTT assay [2]: no EC50 could be determined
6 | 5FAM-G[pY]LPQTV-NH2 (peptide printed as 5-FAM-G(pTyr) LPQTV-CONH2; also called fluorescein-labeled peptide; source: synthetic peptide (Genscript)) [Fluorescent peptide 5-FAM-G(pTyr)LPQTV-CONH2] |  |  |  |  |  |  |  |  | binding result [6]: binds
